Source: patent US8569509B2, “Thiazole-4-carboxylic acid esters and thioesters as plant protection agents” (priority 2008, dated 2013)

Assay: log P determination (HPLC, calibration with unbranched alkan-2-ones)
Type: physicochemical
Details: * LC-MS determination in the acidic range at pH 2.7, 0.1% aqueous formic acid and acetonitrile, linear gradient 10% to 95% acetonitrile
Experimental: The calibration is carried out using unbranched alkan-2-ones (having 3 to 16 carbon atoms) with known log P values (determination of the log P values by the retention times using linear interpolation between two successive alkanones). The lambda-maX values were determined in the maxima of the chromatographic signals using the UV spectra from 200 nm to 400 nm.

| SMILES | log p |
| --- | --- |
| Cc1cc(C)n(C(C)(C)C(=O)N2CCC(c3nc(C(=O)OC4CCCc5ccccc54)cs3)CC2)n1 (centres unmarked) [compound 368] | 4.04* |
| Cc1cc(C)n(C(C)(C)C(=O)N2CCC(c3nc(C(=O)OC[Si](C)(C)C)cs3)CC2)n1 [compound 369] | 3.84* |
| Cc1cc(C)n(C(C)(C)C(=O)N2CCC(c3nc(C(=O)OC4CCCCC4)cs3)CC2)n1 [compound 370] | 3.78* |
| Cc1cc(C)n(C(C)(C)C(=O)N2CCC(c3nc(C(=O)OCC4CC4)cs3)CC2)n1 [compound 372] | 3.86* |
| Cc1cc(C)n(C(C)(C)C(=O)N2CCC(c3nc(C(=O)OC4CCc5ccccc54)cs3)CC2)n1 (centres unmarked) [compound 376] | 3.68* |
| Cc1cc(C)n(C(C)(C)C(=O)N2CCC(c3nc(C(=O)Oc4cccc5ccccc45)cs3)CC2)n1 [compound 377] | 3.82* |
| Cc1cc(C)n(C(C)(C)C(=O)N2CCC(c3nc(C(=O)Oc4ccc5ccccc5c4)cs3)CC2)n1 [compound 378] | 3.73* |
| Cc1cc(C)n(C(C)(C)C(=O)N2CCC(c3nc(C(=O)OCc4ccccc4)cs3)CC2)n1 [compound 379] | 3.19* |
| Cc1cc(C)n(C(C)(C)C(=O)N2CCC(c3nc(C(=O)OCCc4ccc(F)cc4)cs3)CC2)n1 [compound 405] | 3.42* |
| Cc1cc(C)n(C(C)(C)C(=O)N2CCC(c3nc(C(=O)Oc4ccccc4)cs3)CC2)n1 [compound 412] | 3.06* |
| Cc1cc(C)n(C(C)(C)C(=O)N2CCC(c3nc(C(=O)Oc4ccc(F)cc4)cs3)CC2)n1 [compound 413] | 3.21* |
| Cc1cc(C)n(C(C)(C)C(=O)N2CCC(c3nc(C(=O)OCc4ccncc4)cs3)CC2)n1 [compound 442] | 1.33* |
| Cc1cc(C)n(C(C)(C)C(=O)N2CCC(c3nc(C(=O)OCc4cccs4)cs3)CC2)n1 [compound 443] | 3.06* |

Same assay, conditions: * LC-MS determination in the acidic range at pH 2.7, 0.1% aqueous formic acid and acetonitrile, linear gradient 10% to 95% acetonitrile, reversed-phase C 18

| SMILES | log p |
| --- | --- |
| O=C(OCCc1ccc(F)cc1)c1csc(C2CCN(C(=O)Cn3ccc(C(F)(F)F)n3)CC2)n1 [compound 126] | 3.27* |
| O=C(Oc1ccccc1)c1csc(C2CCN(C(=O)Cn3ccc(C(F)(F)F)n3)CC2)n1 [compound 127] | 2.85* |
| O=C(Oc1ccc(F)cc1)c1csc(C2CCN(C(=O)Cn3ccc(C(F)(F)F)n3)CC2)n1 [compound 128] | 2.89* |
| O=C(OCc1ccncc1)c1csc(C2CCN(C(=O)Cn3ccc(C(F)(F)F)n3)CC2)n1 [compound 142] | 1.32* |
| O=C(OCc1cccs1)c1csc(C2CCN(C(=O)Cn3ccc(C(F)(F)F)n3)CC2)n1 [compound 143] | 2.85* |
| Cc1c(Cl)c(C(F)(F)F)nn1CC(=O)N1CCC(c2nc(C(=O)OC[Si](C)(C)C)cs2)CC1 [compound 144] | 4.28* |
| Cc1c(Cl)c(C(F)(F)F)nn1CC(=O)N1CCC(c2nc(C(=O)OC3CCCCC3)cs2)CC1 [compound 145] | 4.17* |
| Cc1c(Cl)c(C(F)(F)F)nn1CC(=O)N1CCC(c2nc(C(=O)OC3CCCC3)cs2)CC1 [compound 146] | 3.84* |
| Cc1c(Cl)c(C(F)(F)F)nn1CC(=O)N1CCC(c2nc(C(=O)OC3CCCc4ccccc43)cs2)CC1 (centres unmarked) [compound 149] | 4.40* |
| Cc1c(Cl)c(C(F)(F)F)nn1CC(=O)N1CCC(c2nc(C(=O)OC3CCCC4CCCCC43)cs2)CC1 (centres unmarked) [compound 150] | 5.44* |
| Cc1c(Cl)c(C(F)(F)F)nn1CC(=O)N1CCC(c2nc(C(=O)OC3CCc4ccccc43)cs2)CC1 (centres unmarked) [compound 151] | 4.17* |
| Cc1c(Cl)c(C(F)(F)F)nn1CC(=O)N1CCC(c2nc(C(=O)Oc3cccc4ccccc34)cs2)CC1 [compound 152] | 4.17* |
| Cc1c(Cl)c(C(F)(F)F)nn1CC(=O)N1CCC(c2nc(C(=O)Oc3ccc4ccccc4c3)cs2)CC1 [compound 153] | 4.17* |
| Cc1c(Cl)c(C(F)(F)F)nn1CC(=O)N1CCC(c2nc(C(=O)OCc3ccccc3)cs2)CC1 [compound 154] | 3.73* |
| Cc1c(Cl)c(C(F)(F)F)nn1CC(=O)N1CCC(c2nc(C(=O)OCc3ccc(F)cc3)cs2)CC1 [compound 155] | 3.73* |
| Cc1c(Cl)c(C(F)(F)F)nn1CC(=O)N1CCC(c2nc(C(=O)OC(C)c3ccc(F)cc3)cs2)CC1 (centres unmarked) [compound 184] | 3.89* |
| Cc1c(Cl)c(C(F)(F)F)nn1CC(=O)N1CCC(c2nc(C(=O)OCCc3ccc(F)cc3)cs2)CC1 [compound 186] | 3.94* |
| Cc1c(Cl)c(C(F)(F)F)nn1CC(=O)N1CCC(c2nc(C(=O)Oc3ccccc3)cs2)CC1 [compound 187] | 3.58* |
| Cc1c(Cl)c(C(F)(F)F)nn1CC(=O)N1CCC(c2nc(C(=O)Oc3ccc(F)cc3)cs2)CC1 [compound 188] | 3.63* |
| Cc1c(Cl)c(C(F)(F)F)nn1CC(=O)N1CCC(c2nc(C(=O)OCc3ccncc3)cs2)CC1 [compound 217] | 1.82* |
| Cc1c(Cl)c(C(F)(F)F)nn1CC(=O)N1CCC(c2nc(C(=O)OCc3cccs3)cs2)CC1 [compound 218] | 3.58* |

Same assay, conditions: * LC-MS determination in the acidic range, pH 2.7, 0.1% aqueous formic acid / acetonitrile gradient

| SMILES | log p |
| --- | --- |
| Cc1cc(C(F)(F)F)nn1CC(=O)N1CCCC(c2nc(C(=O)OCc3ccncc3)cs2)C1 (centres unmarked) [compound 292] | 1.51* |
| Cc1cc(C(F)(F)F)nn1CC(=O)N1CCCC(c2nc(C(=O)OCc3cccs3)cs2)C1 (centres unmarked) [compound 293] | 3.23* |

Same assay, conditions: * LC-MS determination in the acidic range, pH 2.7, 0.1% aqueous formic acid and acetonitrile, linear gradient 10% to 95% acetonitrile

| SMILES | log p |
| --- | --- |
| Cc1ccccc1COC(=O)c1csc(C2CCN(C(=O)Cn3nc(C(F)(F)F)cc3C)CC2)n1 [compound 31] | 3.62* |
| Cc1cc(C(F)(F)F)nn1CC(=O)N1CCC(c2nc(C(=O)OC(C)c3ccc(F)cc3)cs2)CC1 (centres unmarked) [compound 41] | 3.60* |
| CCC(OC(=O)c1csc(C2CCN(C(=O)Cn3nc(C(F)(F)F)cc3C)CC2)n1)c1ccc(F)cc1 (centres unmarked) [compound 42] | 3.89* |
| Cc1cc(C(F)(F)F)nn1CC(=O)N1CCC(c2nc(C(=O)OCCc3ccc(F)cc3)cs2)CC1 [compound 43] | 3.55* |
| Cc1cc(C(F)(F)F)nn1CC(=O)N1CCC(c2nc(C(=O)Oc3ccccc3)cs2)CC1 [compound 44] | 3.20* |
| Cc1cc(C(F)(F)F)nn1CC(=O)N1CCC(c2nc(C(=O)Oc3ccc(F)cc3)cs2)CC1 [compound 45] | 3.26* |
| Cc1cc(C(F)(F)F)nn1CC(=O)N1CCC(c2nc(C(=O)OCc3ccccn3)cs2)CC1 [compound 80] | 2.21* |
| Cc1cc(C(F)(F)F)nn1CC(=O)N1CCC(c2nc(C(=O)OCc3cccs3)cs2)CC1 [compound 81] | 3.22* |
| C[Si](C)(C)COC(=O)c1csc(C2CCN(C(=O)Cn3ccc(C(F)(F)F)n3)CC2)n1 [compound 84] | 3.53* |
| O=C(OC1CCCCC1)c1csc(C2CCN(C(=O)Cn3ccc(C(F)(F)F)n3)CC2)n1 [compound 85] | 3.42* |
| O=C(OC1CCCc2ccccc21)c1csc(C2CCN(C(=O)Cn3ccc(C(F)(F)F)n3)CC2)n1 (centres unmarked) [compound 89] | 3.68* |
| O=C(OC1CCc2ccccc21)c1csc(C2CCN(C(=O)Cn3ccc(C(F)(F)F)n3)CC2)n1 (centres unmarked) [compound 91] | 3.37* |
| O=C(Oc1cccc2ccccc12)c1csc(C2CCN(C(=O)Cn3ccc(C(F)(F)F)n3)CC2)n1 [compound 92] | 3.42* |
| O=C(OCc1ccccc1)c1csc(C2CCN(C(=O)Cn3ccc(C(F)(F)F)n3)CC2)n1 [compound 94] | 2.99* |
| O=C(OCc1ccc(F)cc1)c1csc(C2CCN(C(=O)Cn3ccc(C(F)(F)F)n3)CC2)n1 [compound 95] | 3.04* |
| CC(OC(=O)c1csc(C2CCN(C(=O)Cn3ccc(C(F)(F)F)n3)CC2)n1)c1ccc(F)cc1 (centres unmarked) [compound 124] | 3.18* |

Same assay, conditions: pH 2.7; read-out: log P (pH 2.7)

| SMILES | chromatographic logP |
| --- | --- |
| Cc1cc(C(F)(F)F)nn1CC(=O)N1CCC(c2nc(C(=O)SC3CCCCC3)cs2)CC1 [compound 76, S-Cyclohexyl 2-(1-{[5-methyl-3-(trifluoromethyl)-1H-pyrazol-1-yl]acetyl}piperidin-4-yl)-1,3-thiazole-4-carbothioate] | 4.51 |
| Cc1cc(C(F)(F)F)nn1CC(=O)N1CCC(c2nc(C(=O)Sc3cccc4ccccc34)cs2)CC1 [compound 77, S-1-Naphthyl 2-(1-{[5-methyl-3-(trifluoromethyl)-1H-pyrazol-1-yl]acetyl}piperidin-4-yl)-1,3-thiazole-4-carbothioate] | 4.22 |
| Cc1cc(C(F)(F)F)nn1CC(=O)N1CCC(c2nc(C(=O)OC3CCCCC3)cs2)CC1 [compound 220, Cyclohexyl 2-(1-{[5-methyl-3-(trifluoromethyl)-1H-pyrazol-1-yl]acetyl}piperidin-4-yl)-1,3-thiazole-4-carboxylate] | 3.74 |
| Cc1cc(C(F)(F)F)nn1CC(=O)N1CCC(c2nc(C(=O)OC3CCCc4ccccc43)cs2)CC1 (centres unmarked) [compound 224, 1,2,3,4-Tetrahydronaphthalen-1-yl 2-(1-{[5-methyl-3-(trifluoromethyl)-1H-pyrazol-1-yl]acetyl}piperidin-4-yl)-1,3-thiazole-4-carboxylate] | 4.01 |
| Cc1cc(C(F)(F)F)nn1CC(=O)N1CCC(c2nc(C(=O)Oc3cccc4ccccc34)cs2)CC1 [compound 227, 1-Naphthyl 2-(1-{[5-methyl-3-(trifluoromethyl)-1H-pyrazol-1-yl]acetyl}piperidin-4-yl)-1,3-thiazole-4-carboxylate] | 3.75 |

Same assay, conditions: reversed-phase (C18) HPLC column; * LC-MS determination in the acidic range, pH 2.7, 0.1% aqueous formic acid / acetonitrile gradient; read-out: log p

| SMILES | chromatographic logP |
| --- | --- |
| Cc1cc(C(F)(F)F)nn1CC(=O)N1CCC(c2nc(C(=O)OC3CCCc4ccccc43)cs2)CC1 (centres unmarked) [compound 224, 1,2,3,4-Tetrahydronaphthalen-1-yl 2-(1-{[5-methyl-3-(trifluoromethyl)-1H-pyrazol-1-yl]acetyl}piperidin-4-yl)-1,3-thiazole-4-carboxylate] | 4.01 |
| Cc1cc(C(F)(F)F)nn1CC(=O)N1CCC(c2nc(C(=O)Oc3cccc4ccccc34)cs2)CC1 [compound 227, 1-Naphthyl 2-(1-{[5-methyl-3-(trifluoromethyl)-1H-pyrazol-1-yl]acetyl}piperidin-4-yl)-1,3-thiazole-4-carboxylate] | 3.75 |

Same assay, conditions: reversed-phase (C18) HPLC column; * LC-MS determination in the acidic range, pH 2.7, 0.1% aqueous formic acid and acetonitrile, linear gradient 10% to 95% acetonitrile; read-out: log p

| SMILES | chromatographic logP |
| --- | --- |
| Cc1cc(C(F)(F)F)nn1CC(=O)N1CCC(c2nc(C(=O)SC3CCCCC3)cs2)CC1 [compound 76, S-Cyclohexyl 2-(1-{[5-methyl-3-(trifluoromethyl)-1H-pyrazol-1-yl]acetyl}piperidin-4-yl)-1,3-thiazole-4-carbothioate] | 4.51 |
| Cc1cc(C(F)(F)F)nn1CC(=O)N1CCC(c2nc(C(=O)Sc3cccc4ccccc34)cs2)CC1 [compound 77, S-1-Naphthyl 2-(1-{[5-methyl-3-(trifluoromethyl)-1H-pyrazol-1-yl]acetyl}piperidin-4-yl)-1,3-thiazole-4-carbothioate] | 4.22 |

Same assay, conditions: reversed-phase C18 HPLC column; * LC-MS determination in the acidic range at pH 2.7, 0.1% aqueous formic acid and acetonitrile, linear gradient 10% to 95% acetonitrile, reversed-phase C 18; read-out: log p

| SMILES | chromatographic logP |
| --- | --- |
| Cc1cc(C(F)(F)F)nn1CC(=O)N1CCC(c2nc(C(=O)OC3CCCCC3)cs2)CC1 [compound 220, Cyclohexyl 2-(1-{[5-methyl-3-(trifluoromethyl)-1H-pyrazol-1-yl]acetyl}piperidin-4-yl)-1,3-thiazole-4-carboxylate] | 3.74 |
